Results taken from article PMC9097129, “C-terminal mini-PEGylation of a marine peptide N6 had potent antibacterial and anti-inflammatory properties against Escherichia coli and Salmonella strains in vitro and in vivo” (BMC Microbiology, 2022).

Assays:
E. coli CVCC195 [1] = assay: Mouse peritonitis model, survival; assay type: in vivo, ICR mice; design: survival of mice in E. coli lethal model: unit not given here
Procedure: To evaluate in vivo efficacy of N6 and N6-COOH-miniPEG, the 6-week-old female ICR mice, weight 20 ± 2 g (10 mice/group) were intraperitoneally injected with E. coli CVCC195 or S. pullorum CVCC533 at a concentration of absolute lethal dose (LD100). After the intraperitoneal injection with E. coli CVCC195 (1 × 10^9 CFU/mL, 0.2 mL), the mice were treated with N6 (2 and 4 μmol/kg), N6-COOH-miniPEG (2 and 4 μmol/kg) or PMB (0.125 and 0.25 μmol/kg) at 0.5 h and 8 h, respectively.
(§1) Similarly, after the intraperitoneal injection with S. pullorum CVCC533 (5 × 10^7 CFU/mL, 0.2 mL), the mice were treated with N6 (8 and 10 μmol/kg), N6-COOH-miniPEG (8 and 10 μmol/kg) or CIP (0.8 and 1 μmol/kg) at 0.5 h, respectively. The mice injected with antibiotics or PBS served as the positive and blank control (CK), respectively. Survival of the mice was recorded daily for 7 d.

E. coli 0111:B4 LPS = assay: Endotoxemia mouse model, serum cytokines by ELISA; assay type: in vivo, mice; design: levels of TNF-α in sera: unit not given here; settings: for levels of TNF-α in sera / levels of IL-1β in sera: ELISA kit, mean of n = 3; for Decrease of serum IL-1β level / Decrease of serum IL-6 level / Decrease of serum IL-10 level / Decrease of serum TNF-α level: LPS 10 mg/kg i.p., peptides 0.25 μmol/kg, PMB 10 μmol/kg, CIP 5 μmol/kg
Procedure: The mice (10 mice/group) were injected intraperitoneally with N6 and N6-COOH-miniPEG (0.25 μmol/kg), PMB (10 μmol/kg) or CIP (5 μmol/kg) 0.5 h after challenge with 10 mg/kg E. coli 0111:B4 LPS. Blood was collected in a heparin sodium tube at 2 or 8 h after LPS injection and incubated for 30 min at 37 °C and then overnight at 4 °C. After centrifugation at 3,000 rpm for 10 min at 4 °C, serum was collected from supernatant. The cytokine levels of TNF-α, IL-6, IL-1β and IL-10 in serum were detected by the Jiaxuan Biotech. Co. Ltd. (Beijing, China) using an ELISA. […]

E. coli CVCC195 [2] = assay: Organ injury, histopathology (HE); assay type: in vivo, mice; settings: 24 h and 5 d post-treatment, peptides 4 μmol/kg, HE staining
Procedure: (§2) The mice were treated with N6 (4 and 10 μmol/kg) and N6-COOH-miniPEG (4 and 10 μmol/kg) after intraperitoneal injection of E. coli CVCC195 for 0.5 and 8 h or S. pullorum CVCC533 for 0.5 h as described above. Livers, spleens, kidneys and lungs were removed from the mice at 24 h and 5 d post-treatment after E. coli CVCC195 injection and at 48 h and 4 d post-treatment after S. pullorum CVCC533 injection, respectively, washed in PBS, fixed in 4% paraformaldehyde at 4 °C for 24 h, and stained with hematoxylin and eosin (HE) for histopathology analysis. Finally, the tissue samples were fixed and observed by the light microscope. The uninfected mice served as the blank control (CK); the infected mice being treated with PBS were used as the negative control.

E. coli CVCC195 [3] = assay: Bacterial translocation, bacterial loads in organs; assay type: in vivo, mice; design: unit not given here; settings: mean of n = 3
Procedure: (§3) The mice (10 mice/group) were challenged with E. coli CVCC195 (1 × 10^9 CFU/mL, 0.2 mL) or S. pullorum CVCC533 (5 × 10^7 CFU/mL, 0.2 mL) by intraperitoneal injection and treated with N6 (4 and 10 μmol/kg) or N6-COOH-miniPEG (4 and 10 μmol/kg). To evaluate bacterial loads in organs, the livers, spleens, kidneys and lungs were removed from the sacrificed mice at 24 h post treatment and homogenized in sterile PBS for E. coli CVCC195 colony counting; similarly, the livers, spleens, kidneys and lungs were removed from the sacrificed mice at 48 h after treatment and homogenized in sterile PBS for S. pullorum CVCC533 colony counting. The uninfected mice served as the blank control (CK); the infected mice treated with PBS were used as the negative control. The mice were sacrificed by neck dislocation under inhaled isoflurane anesthesia (RWD Life Science Co., LTD. Shenzhen, China).

S. pullorum CVCC533 [4] = assay: Bacterial translocation, bacterial loads in organs; assay type: in vivo, mice; design: bacteria counted in the organs of mice infected with S. pullorum: unit not given here
Procedure: as §3

S. pullorum CVCC533 [5] = assay: Time-killing curves; assay type: cell-based, Salmonella pullorum; settings: 1 × MIC
Procedure: The sample (100 μL) was taken from each flask at 0, 0.5, 1, 2, 4, 6, 8, 10, 12, and 24 h, respectively and serially diluted for colony counting. The group untreated with peptides was a blank control. PMB and CIP were used as the positive control. Similarly, bacterial cells (1 × 10^5 CFU/mL) were incubated with 3/128, 1/32, 3/64, 1/16, 3/32, 1/8, 3/16, 1/4, 3/8, 1/2, 3/4, 1, 2, 3, and 4 × MIC N6 or N6-COOH-miniPEG. The sample was taken from each flask at 24 h and serially diluted for colony counting.

S. pullorum CVCC533 [6] = assay: Organ injury, histopathology (HE); assay type: in vivo, mice; settings: 48 h and 4 d post-treatment, peptides 10 μmol/kg, HE staining
Procedure: as §2

S. pullorum CVCC533 [7] = assay: Mouse peritonitis model, survival; assay type: in vivo, ICR mice
Procedure: as §1

[8] = peptides 10 μmol/kg, CIP 1 μmol/kg, 48 h after treatment, versus untreated infected mice

Molecule: polymyxin B [PMB]
- survival of mice in E. coli lethal model (E. coli CVCC195 [1]; 0.125 μmol/kg, day 0): 100
- survival of mice in E. coli lethal model (E. coli CVCC195 [1]; 0.125 μmol/kg, day 1): 80
- survival of mice in E. coli lethal model (E. coli CVCC195 [1]; 0.125 μmol/kg, day 2): 60
- survival of mice in E. coli lethal model (E. coli CVCC195 [1]; 0.125 μmol/kg, day 3): 30
- survival of mice in E. coli lethal model (E. coli CVCC195 [1]; 0.125 μmol/kg, day 4): 30
- survival of mice in E. coli lethal model (E. coli CVCC195 [1]; 0.125 μmol/kg, day 5): 30
- survival of mice in E. coli lethal model (E. coli CVCC195 [1]; 0.125 μmol/kg, day 6): 30
- survival of mice in E. coli lethal model (E. coli CVCC195 [1]; 0.125 μmol/kg, day 7): 30
- Survival rate of mice (E. coli CVCC195 [1]; 0.25 μmol/kg i.p. at 0.5 h and 8 h, 7 d): 100%
- survival of mice in E. coli lethal model (E. coli CVCC195 [1]; 0.25 μmol/kg, day 0): 100
- survival of mice in E. coli lethal model (E. coli CVCC195 [1]; 0.25 μmol/kg, day 1): 100
- survival of mice in E. coli lethal model (E. coli CVCC195 [1]; 0.25 μmol/kg, day 2): 100
- survival of mice in E. coli lethal model (E. coli CVCC195 [1]; 0.25 μmol/kg, day 3): 100
- survival of mice in E. coli lethal model (E. coli CVCC195 [1]; 0.25 μmol/kg, day 4): 100
- survival of mice in E. coli lethal model (E. coli CVCC195 [1]; 0.25 μmol/kg, day 5): 100
- survival of mice in E. coli lethal model (E. coli CVCC195 [1]; 0.25 μmol/kg, day 6): 100
- survival of mice in E. coli lethal model (E. coli CVCC195 [1]; 0.25 μmol/kg, day 7): 100
- levels of TNF-α in sera (E. coli 0111:B4 LPS; 2 h after treatment): 99.8667
- levels of TNF-α in sera (E. coli 0111:B4 LPS; 8 h after treatment): 239.767
- Organ injury, histopathology (E. coli CVCC195 [2]): apparently less damage of liver, spleen, kidney and lung
- bacteria counted in the organs of mice infected with E. coli (E. coli CVCC195 [3]; Kidney): 3.851
- bacteria counted in the organs of mice infected with E. coli (E. coli CVCC195 [3]; Liver): 3.743
- bacteria counted in the organs of mice infected with E. coli (E. coli CVCC195 [3]; Lung): 3.796
- bacteria counted in the organs of mice infected with E. coli (E. coli CVCC195 [3]; Spleen): 3.605

Molecule: O=C(O)c1cn(C2CC2)c2cc(N3CCNCC3)c(F)cc2c1=O [CIP]
- bacteria counted in the organs of mice infected with S. pullorum (S. pullorum CVCC533 [4]; Kidney, mean): 3.299
- bacteria counted in the organs of mice infected with S. pullorum (S. pullorum CVCC533 [4]; Liver, replicate 1): 3.641
- bacteria counted in the organs of mice infected with S. pullorum (S. pullorum CVCC533 [4]; Liver, replicate 2): 4.221
- bacteria counted in the organs of mice infected with S. pullorum (S. pullorum CVCC533 [4]; Lung, mean): 3.527
- bacteria counted in the organs of mice infected with S. pullorum (S. pullorum CVCC533 [4]; Spleen, replicate 1): 4.255
- bacteria counted in the organs of mice infected with S. pullorum (S. pullorum CVCC533 [4]; Spleen, replicate 2): 4.222
- bacteria counted in the organs of mice infected with S. pullorum (S. pullorum CVCC533 [4]; Spleen, replicate 3): 3.905
- Decrease of bacterial count in kidneys (S. pullorum CVCC533 [4]; [8]): 40.20%
- Decrease of bacterial count in livers (S. pullorum CVCC533 [4]; [8]): 31.66%
- Decrease of bacterial count in lungs (S. pullorum CVCC533 [4]; [8]): 43.65%
- Decrease of bacterial count in spleens (S. pullorum CVCC533 [4]; [8]): 47.75%
- Decrease of serum IL-1β level (E. coli 0111:B4 LPS; 2 h): 9.13%
- Decrease of serum IL-6 level (E. coli 0111:B4 LPS; 2 h): 30.83%
- Decrease of serum IL-10 level (E. coli 0111:B4 LPS; 2 h): 15.33%
- Decrease of serum TNF-α level (E. coli 0111:B4 LPS; 2 h): 1.78%
- levels of IL-1β in sera (E. coli 0111:B4 LPS; 2 h after treatment): 87.9333
- levels of TNF-α in sera (E. coli 0111:B4 LPS; 2 h after treatment): 153
- Decrease of serum IL-1β level (E. coli 0111:B4 LPS; 8 h): 0.07%
- Decrease of serum IL-6 level (E. coli 0111:B4 LPS; 8 h): -0.24%
- Decrease of serum IL-10 level (E. coli 0111:B4 LPS; 8 h): 0.13%
- Decrease of serum TNF-α level (E. coli 0111:B4 LPS; 8 h): -0.37%
- levels of IL-1β in sera (E. coli 0111:B4 LPS; 8 h after treatment): 171.167
- levels of TNF-α in sera (E. coli 0111:B4 LPS; 8 h after treatment): 559.733
- Time to kill 99.9% of cells (S. pullorum CVCC533 [5]): ≤ 6 h
- Organ injury, histopathology (S. pullorum CVCC533 [6]): apparently less damage of liver, spleen, kidney and lung
- survival of mice in S. pullorum lethal model (S. pullorum CVCC533 [7]; 0.8 μmol/kg, day 0): 100
- survival of mice in S. pullorum lethal model (S. pullorum CVCC533 [7]; 0.8 μmol/kg, day 1): 100
- survival of mice in S. pullorum lethal model (S. pullorum CVCC533 [7]; 0.8 μmol/kg, day 2): 100
- survival of mice in S. pullorum lethal model (S. pullorum CVCC533 [7]; 0.8 μmol/kg, day 3): 100
- survival of mice in S. pullorum lethal model (S. pullorum CVCC533 [7]; 0.8 μmol/kg, day 4): 83.3333
- survival of mice in S. pullorum lethal model (S. pullorum CVCC533 [7]; 0.8 μmol/kg, day 5): 83.3333
- survival of mice in S. pullorum lethal model (S. pullorum CVCC533 [7]; 0.8 μmol/kg, day 6): 83.3333
- survival of mice in S. pullorum lethal model (S. pullorum CVCC533 [7]; 0.8 μmol/kg, day 7): 83.3333
- Survival rate of mice (S. pullorum CVCC533 [7]; 1 μmol/kg i.p. at 0.5 h (legend of Fig. 6: 0.5 and 8 h), 7 d): 100%
- survival of mice in S. pullorum lethal model (S. pullorum CVCC533 [7]; 1 μmol/kg, day 0): 100
- survival of mice in S. pullorum lethal model (S. pullorum CVCC533 [7]; 1 μmol/kg, day 1): 100
- survival of mice in S. pullorum lethal model (S. pullorum CVCC533 [7]; 1 μmol/kg, day 2): 100
- survival of mice in S. pullorum lethal model (S. pullorum CVCC533 [7]; 1 μmol/kg, day 3): 100
- survival of mice in S. pullorum lethal model (S. pullorum CVCC533 [7]; 1 μmol/kg, day 4): 100
- survival of mice in S. pullorum lethal model (S. pullorum CVCC533 [7]; 1 μmol/kg, day 5): 100
- survival of mice in S. pullorum lethal model (S. pullorum CVCC533 [7]; 1 μmol/kg, day 6): 100
- survival of mice in S. pullorum lethal model (S. pullorum CVCC533 [7]; 1 μmol/kg, day 7): 100
